A short description of this data set: Retention on Sep-Pak C18 reversed phase column (lipophilicity). The format is physicochemical. The text has this:
Cation exchange resin: Sep-Pak CM (COONa), illpore, anion exchange resin: Sep-Pak QMA (CONH(CH2)3N(CH3)3^+Cl), Millpore, reversed phase column: Sep-Pak C18, Millpore. The complex was retained in an amount of about 95% in the cation exchange resin, about 60% in the anion exchange resin, or 99.5% in the reversed phase column.

Molecules are shown by their SMILES.

Take `COCCC[P+]1(CCCOC)CCN(CCOC)CC[P+](CCCOC)(CCCOC)[99Tc-2]12(#[N])[NH]C(C(=O)N(C)CCCN1c3ccccc3CCc3ccccc31)C[S]2` (centres unmarked) [^99mTcN-DESI]: the “amount retained in the reversed phase column” value is recorded as 99.5% and the “lipophilicity suggested by retention in reversed phase column” value is listed as “high lipophilic”.
